System: Liver microsomes
Assay: Metabolic stability in human liver microsomes
Assay type: ADME, Microsome

Row | Stability [%] | Structure (SMILES)
1 | 31 | O=C(Nc1ccc(-n2nc(-c3cccnc3)cc2C(F)(F)F)nn1)c1ccccc1
2 | 36 | O=C(Nc1ccc(-n2nc(-c3cccnc3)cc2C(F)(F)F)cn1)c1ccccc1

From ChEMBL document CHEMBL1268990, “Substituted pyrazoles as novel sEH antagonist: investigation of key binding interactions within the catalytic domain” (Bioorg Med Chem Lett, 2010)
